Experimental data from PMC1810525, “Antagonism of the prostaglandin D2 receptor CRTH2 attenuates asthma pathology in mouse eosinophilic airway inflammation” (Respiratory Research, 2007).

How the values were obtained:
Settings in all cases: 10 μM
AT1 = molecular target: T1, AT1 (Homo sapiens, UniProt P30556); experiment: Profiling panel, radioligand binding AT1
T1 sequence (P30556 1-359): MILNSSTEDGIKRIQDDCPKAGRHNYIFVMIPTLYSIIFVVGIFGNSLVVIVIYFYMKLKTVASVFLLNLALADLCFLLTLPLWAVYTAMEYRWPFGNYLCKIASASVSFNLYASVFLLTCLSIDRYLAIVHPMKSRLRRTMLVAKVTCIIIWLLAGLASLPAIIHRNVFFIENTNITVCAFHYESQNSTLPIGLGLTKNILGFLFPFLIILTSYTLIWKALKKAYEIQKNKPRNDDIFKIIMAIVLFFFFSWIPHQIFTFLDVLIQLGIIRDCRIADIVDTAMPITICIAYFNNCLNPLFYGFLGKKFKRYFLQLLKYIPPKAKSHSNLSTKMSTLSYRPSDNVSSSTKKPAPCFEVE
Procedure: (§1) All assays were performed using recombinant human receptors and enzymes, and included the appropriate controls for assay validation. Enzymatic and binding assays, except for muscarinic binding, were performed by CEREP in vitro pharmacology profiling services. […] For stimulation of C3a, C5a, and ChemR23 receptors in InsP assays the following agonists were used: human recombinant C3a (C3a receptor), human recombinant C5a (C5a receptor), and the nonapeptide Chemerin (ChemR23).

AT2 = molecular target: T2, AT2 (Homo sapiens, UniProt P50052); experiment: Profiling panel, radioligand binding AT2
T2 sequence (P50052 1-363): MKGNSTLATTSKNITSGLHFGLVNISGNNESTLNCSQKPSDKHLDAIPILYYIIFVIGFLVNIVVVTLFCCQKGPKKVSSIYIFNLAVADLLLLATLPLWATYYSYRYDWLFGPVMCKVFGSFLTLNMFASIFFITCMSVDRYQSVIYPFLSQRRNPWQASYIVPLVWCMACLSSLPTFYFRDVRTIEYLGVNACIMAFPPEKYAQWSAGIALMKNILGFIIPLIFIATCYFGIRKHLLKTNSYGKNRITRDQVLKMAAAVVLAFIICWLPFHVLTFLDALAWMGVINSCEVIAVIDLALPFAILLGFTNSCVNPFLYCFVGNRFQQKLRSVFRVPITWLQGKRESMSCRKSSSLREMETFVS
Procedure: as §1

Glucocorticoid = molecular target: T3, Glucocorticoid (Homo sapiens, UniProt P04150); experiment: Profiling panel, radioligand binding Glucocorticoid
T3 sequence (P04150 1-777): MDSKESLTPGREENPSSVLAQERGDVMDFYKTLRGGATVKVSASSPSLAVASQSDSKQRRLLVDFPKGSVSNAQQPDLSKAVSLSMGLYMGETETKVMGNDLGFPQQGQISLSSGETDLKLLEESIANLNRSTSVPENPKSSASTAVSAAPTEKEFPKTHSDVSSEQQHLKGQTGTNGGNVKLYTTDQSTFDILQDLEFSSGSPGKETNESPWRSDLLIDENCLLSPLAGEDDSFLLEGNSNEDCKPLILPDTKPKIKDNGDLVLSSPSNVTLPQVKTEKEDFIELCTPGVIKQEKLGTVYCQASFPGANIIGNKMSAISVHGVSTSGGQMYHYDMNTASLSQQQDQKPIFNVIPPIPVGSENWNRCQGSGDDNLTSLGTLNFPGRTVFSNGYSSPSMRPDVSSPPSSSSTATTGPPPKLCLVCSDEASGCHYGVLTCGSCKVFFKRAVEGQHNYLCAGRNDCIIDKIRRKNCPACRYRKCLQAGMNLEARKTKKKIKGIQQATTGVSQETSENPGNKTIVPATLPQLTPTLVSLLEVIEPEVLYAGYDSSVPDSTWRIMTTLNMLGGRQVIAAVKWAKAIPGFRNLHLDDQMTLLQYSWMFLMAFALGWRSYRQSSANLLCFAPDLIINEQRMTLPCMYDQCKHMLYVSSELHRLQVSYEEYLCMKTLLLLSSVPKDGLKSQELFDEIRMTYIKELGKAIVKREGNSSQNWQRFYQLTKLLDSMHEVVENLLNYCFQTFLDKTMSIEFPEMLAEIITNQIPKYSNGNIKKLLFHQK
Procedure: as §1

COX2 = molecular target: T4, COX2 (Homo sapiens, UniProt P35354); experiment: Profiling panel, enzymatic assay COX2; format: biochemical
T4 sequence (P35354 18-604): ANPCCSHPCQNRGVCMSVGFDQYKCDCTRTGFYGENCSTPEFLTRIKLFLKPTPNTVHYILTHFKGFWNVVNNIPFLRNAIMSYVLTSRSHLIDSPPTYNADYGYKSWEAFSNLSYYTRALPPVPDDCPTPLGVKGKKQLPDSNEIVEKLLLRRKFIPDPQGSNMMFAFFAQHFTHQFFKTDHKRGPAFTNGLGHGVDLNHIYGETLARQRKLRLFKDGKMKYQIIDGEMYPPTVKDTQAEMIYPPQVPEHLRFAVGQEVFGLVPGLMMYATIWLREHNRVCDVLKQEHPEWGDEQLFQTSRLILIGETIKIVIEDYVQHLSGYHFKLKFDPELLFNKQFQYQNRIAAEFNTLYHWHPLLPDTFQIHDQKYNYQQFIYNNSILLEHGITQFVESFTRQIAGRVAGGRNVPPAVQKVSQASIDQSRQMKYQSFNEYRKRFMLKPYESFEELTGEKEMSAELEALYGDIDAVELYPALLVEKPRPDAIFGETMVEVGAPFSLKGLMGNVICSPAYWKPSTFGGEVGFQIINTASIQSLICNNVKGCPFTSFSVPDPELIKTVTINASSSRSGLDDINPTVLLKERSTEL
Procedure: as §1

CN(C1CCc2c(c3ccccc3n2CC(=O)O)C1)S(=O)(=O)c1ccc(F)cc1 (stereo not shown) [TM30089]
% of control AT1 (AT1): 90.1 ± 2.8% | % of control AT2 (AT2): 98.1 ± 1.4% | % of control Glucocorticoid (Glucocorticoid): 98.9 ± 11.3% | % of control COX2 (COX2): 123.8 ± 13.4%
